In patent publication US12162863B2, “Modulators of stimulator of interferon genes (STING)” (RYVU THERAPEUTICS S.A., priority 2018, dated 2024) one finds EC50 and ΔTm data, which are given here for four molecules.

Test [1] deals with NF-κB pathway in THP-1 dual cells. As to the kind of experiment: THP-1 Dual Reporter Assay, NF-κB pathway (SEAP reporter). The class given is cell-based. As to conditions: Homo sapiens, THP1-Dual, 18 h of stimulation, absorbance at 630 nm, read-out: THP1 Dual EC50 (μM) NFkB. In a few lines: (§1)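 THP-1 dual cells stimulated 18 h with STING agonist; medium then sampled. IRF pathway: luciferase (ISG54 promoter/ISRE) read as luminescence immediately after reagent addition. NF-κB pathway: SEAP (IFN-β minimal promoter/NF-κB elements) developed 2 h at 37 °C, absorbance at 630 nm.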
A general note: Reporter assays use an easily measured gene product as a stand-in for the process of interest.

Test [2] deals with interferon regulatory factor (IRF) pathway in THP-1 dual cells. As to the kind of experiment: THP-1 Dual Reporter Assay, IRF pathway (luciferase reporter). The class given is cell-based. As to conditions: Homo sapiens, THP1-Dual, 18 h of stimulation, luminescence. In a few lines:
as §1

For a further test, the target named is human STING (Homo sapiens, UniProt Q86WV6). As to the kind of experiment: Fluorescence Thermal Shift assay. The class given is binding. As to conditions: 50 μM compound; STING 0.1 mg/ml; 20 minutes preincubation; read-out: [hSTING] FTS, ΔTm [° C.] for 50 μM. In outline: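 Human STING at a final 0.1 mg/ml was preincubated with compound for 20 min in 50 mM Hepes, 150 mM NaCl, pH 7.5, then SyproOrange dye was added. Thermal unfolding ran from 25 to 99° C at 0.033° C/s, continuous ramp. Values are reported as ΔTm (° C).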

The structures appear in SMILES notation. A value given as a limit tells only on which side of the number the result lay.

Chain of human STING (Q86WV6 whole entry H232R): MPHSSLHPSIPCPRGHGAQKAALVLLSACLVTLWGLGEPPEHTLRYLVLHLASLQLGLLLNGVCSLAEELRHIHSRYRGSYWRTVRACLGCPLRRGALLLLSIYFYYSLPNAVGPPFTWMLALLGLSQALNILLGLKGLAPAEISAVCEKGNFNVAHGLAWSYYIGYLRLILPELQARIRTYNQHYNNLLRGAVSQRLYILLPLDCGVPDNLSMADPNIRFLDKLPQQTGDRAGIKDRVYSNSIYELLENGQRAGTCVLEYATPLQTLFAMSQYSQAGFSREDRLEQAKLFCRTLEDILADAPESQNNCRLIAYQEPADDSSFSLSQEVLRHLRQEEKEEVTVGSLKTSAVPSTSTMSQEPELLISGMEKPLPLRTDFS

For orientation: EC50 means the concentration giving half of the maximal effect. The ΔTm is the shift of the melting midpoint relative to a reference. For the molecule `COc1cc(CN(CCCn2cnc3cncnc32)Cc2c(C)oc3cc(N4CCN(C)CC4)c(F)cc3c2=O)ccn1` [Example 84, 6-fluoro-2-methyl-7-(4-methylpiperazin-1-yl)-3-({[3-(9H-purin-9-yl)propyl][(2-methoxypyridin-4-yl)methyl]amino}methyl)-4H-chromen-4-one], the concentration for a half-maximal effect (EC50) is not above 10 µM in test [1] and 10 to 20 µM in test [2]. Also, the ΔTm at 50 µM at human STING is more than 2.5 °C.
Consider `O=c1c(CN(CCCn2cccn2)Cc2ccncc2)coc2ccccc12` [Example 3, 3-({[3-(1H-pyrazol-1-yl)propyl](pyridin-4-ylmethyl)amino}methyl)-4H-chromen-4-one], for which the half-maximal effective concentration (EC50) in test [1] and in test [2] was not below 20 µM each time. At human STING, the ΔTm at 50 µM was less than 2.5 °C.
In the case of `Cc1cc(CN(CCCc2cccnc2)Cc2cn(C)c3ccccc3c2=O)ccn1` [Example 101, 1-methyl-3-({[(2-methylpyridin-4-yl)methyl][3-(pyridin-3-yl)propyl]amino}methyl)-1,4-dihydroquinolin-4-one], the EC50 in test [1] is 10 to 20 µM; in test [2], not above 10 µM. Further, the thermal shift (ΔTm) at 50 µM at human STING is more than 2.5 °C.
On to `Cc1oc2c(ccc3ccccc32)c(=O)c1CN(CCCn1ccnc1)Cc1ccncc1` [Example 67, 3-({[3-(1H-imidazol-1-yl)propyl][(pyridin-4-yl)methyl]amino}methyl)-2-methyl-4H-benzo[h]chromen-4-one], for which the EC50 in test [1] and in test [2] was not above 10 µM throughout. In addition, the shift in melting temperature (ΔTm) at 50 µM at human STING is more than 2.5 °C.
